For 24 compounds, IC50 and EC50 results are on record in US11447486B2, “2-amino-benzimidazole derivatives and their use as 5-lipoxygenase and/or prostaglandin E synthase inhibitors” (INSTITUT PASTEUR KOREA, priority 2014, dated 2022).

The target of one test is T1, human 5-LOX (Homo sapiens, UniProt P09917).
T1 construct: purchased Cayman 60402; host or cells: insect cells (lysate)
T1 sequence (P09917 1-674): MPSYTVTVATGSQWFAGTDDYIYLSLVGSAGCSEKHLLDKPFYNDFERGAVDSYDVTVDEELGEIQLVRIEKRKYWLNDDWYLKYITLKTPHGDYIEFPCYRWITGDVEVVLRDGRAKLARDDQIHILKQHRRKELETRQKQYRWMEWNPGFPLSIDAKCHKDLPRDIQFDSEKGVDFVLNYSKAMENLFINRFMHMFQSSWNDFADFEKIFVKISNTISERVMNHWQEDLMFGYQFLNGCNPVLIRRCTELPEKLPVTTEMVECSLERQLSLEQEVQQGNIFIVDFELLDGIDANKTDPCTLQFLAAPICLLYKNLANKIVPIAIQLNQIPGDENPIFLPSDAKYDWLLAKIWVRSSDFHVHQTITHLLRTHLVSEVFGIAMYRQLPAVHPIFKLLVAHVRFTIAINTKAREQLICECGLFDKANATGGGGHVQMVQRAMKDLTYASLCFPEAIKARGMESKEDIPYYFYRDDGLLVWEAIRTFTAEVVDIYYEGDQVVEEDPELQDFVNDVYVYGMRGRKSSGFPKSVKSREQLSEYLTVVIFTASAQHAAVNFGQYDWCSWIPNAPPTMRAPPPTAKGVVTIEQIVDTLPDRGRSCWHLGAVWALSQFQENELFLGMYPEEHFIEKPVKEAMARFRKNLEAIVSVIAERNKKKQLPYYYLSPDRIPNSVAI
As to the kind of experiment: 5-LOX enzyme activity, fluorescence method (5-HPETE, H2DCFDA). The test is classed as biochemical. The settings on record: read-out: 5-LO (IC50). On the procedure: The activity of compounds against 5-LOX were determined by measuring LTB4 (leukotriene B4) levels and/or by a fluorescence method. Both approaches are outlined in more detail below;
The compound, in a dose response manner(0.5 nM to 10 uM), and enzyme mixture was pre-incubated for 5 minutes, and the enzymatic reaction was initiated by addition of ATP and arachidonic acid to a final concentration of 100 uM and 3 uM, respectively. […] All steps were carried out at room temperature.

The subject of test [1] is Rat basophilic leukemia (RBL) cells. Briefly: LTB4 secretion assay in RBL (rat basophilic leukemia cells). The test is classed as cell-based. As to conditions: Rattus norvegicus, RBL. On the procedure:
Rat basophilic leukemia (RBL) cells (ATCC, Cat #CRL-2256) were maintained in EMEM (ATCC, Cat #30-2003) supplemented with 15% FBS. The day before RBL assay, cells were seeded at a concentration of 2×10^4 cells per well in 96-well plates. The media was replaced with 100 ul of EMEM supplemented with 0.5% FBS and compounds in dose response(5 nM to 100 uM) were added. After 15 min of pre-incubation at 37° C., arachidonic acid and calcium ionophore (A23187) were added to give a final concentration of 2.5 uM and 5 uM, respectively. After a further 10 min incubation at 37° C., culture supernatant was transferred and quantification of LTB4 was done with a Leukotriene B4 EIA kit (Cayman, Cat #520111) as instructed.

Molecules are shown by their SMILES. Some results are limits rather than exact numbers.

A word on the IC50: it is the midpoint of a concentration-inhibition curve. As usually defined, the EC50 is the concentration needed to bring the measured effect to its halfway point. Higher therefore signals a need for much substance.

With `CN(C)c1nc2ccc(N3CCC(C(=O)c4ccc(Cl)cn4)C3)cc2[nH]1` (stereo not drawn) [Compound 230], the IC50 on human 5-LOX is less than 1 µM. The compound further registered an EC50 in test [1] of less than 10 µM.

As for `CN(C)c1nc2cc(NCc3ccc(CC(N)=O)cc3)ccc2[nH]1` [Compound 232], the IC50 on human 5-LOX was less than 1 µM. This compound also returned an EC50 in test [1] greater than 20 µM.

In the case of `Nc1nc2ccc(N3CC(F)(F)C3)cc2n1Cc1ccc(Oc2ccc(Cl)cn2)cc1` [Compound 235], the IC50 on human 5-LOX is greater than 10 µM. The same compound returned an EC50 in test [1] of less than 10 µM.

Take `CN(C)c1nc2cc(N3CCC(c4nc5ccc(Cl)cc5o4)C3)ccc2[nH]1` (stereo not drawn) [Compound 236]: at human 5-LOX, the IC50 was less than 1 µM. Besides, the concentration for a half-maximal effect (EC50) in test [1] is less than 10 µM.

On to `CN(C)c1nc2ccc(NCc3ccc(C4(C(N)=O)CCOCC4)cc3)cc2[nH]1` [Compound 237], for which the concentration for half-maximal inhibition (IC50) at human 5-LOX was less than 1 µM. For the same compound, the EC50 in test [1] was greater than 20 µM.

Regarding `Nc1ccc2nc(N)n(Cc3ccc(Oc4ccc(Cl)cc4)nc3)c2c1` [Compound 240], on human 5-LOX, the IC50 was less than 1 µM. The compound further registered an EC50 in test [1] of less than 10 µM.

Regarding `FC1(F)CN(c2ccc3nc(NCc4ccc(Oc5ccc(Cl)cc5)cc4)[nH]c3c2)C1` [Compound 242], on human 5-LOX, the IC50 was 1 to 10 µM. For the same compound, the EC50 in test [1] is less than 10 µM.

In the case of `Nc1ccc2nc(N)n(CCc3ccc(Oc4ccc(Cl)cn4)cc3)c2c1` [Compound 244], the IC50 at human 5-LOX is less than 1 µM. The compound also came in with an EC50 in test [1] of less than 10 µM.

In the case of `Nc1ccc2nc(N)n(Cc3ccc(Oc4nc5ccccc5o4)cc3)c2c1` [Compound 246], the IC50 at human 5-LOX is less than 1 µM. In test [1], the EC50 was less than 10 µM.

In the case of `CC(c1ccc(Oc2ccc(Cl)cn2)cc1)n1c(N)nc2ccc(N)cc21` (stereo not drawn) [Compound 247], at human 5-LOX, the IC50 was less than 1 µM. This compound also returned an EC50 in test [1] of less than 10 µM.

Regarding `Nc1ccc2nc(N)n(Cc3ccc(Oc4ccc(Cl)cn4)c(F)c3)c2c1` [Compound 248], at human 5-LOX, the IC50 was less than 1 µM. This compound returned an EC50 in test [1] of less than 10 µM.

Turning to `Nc1ccc2nc(NCCO)n(Cc3ccc(Oc4ccc(Cl)cn4)cc3)c2c1` [Compound 250], on human 5-LOX, the IC50 is less than 1 µM. Also, the EC50 in test [1] was less than 10 µM.

In the case of `N#CCCNc1nc2ccc(N)cc2n1Cc1ccc(Oc2ccc(Cl)cc2)cc1` [Compound 252], at human 5-LOX, the IC50 is less than 1 µM. The compound also registered an EC50 in test [1] of less than 10 µM.

Turning to `Nc1ccc2nc(N)n(Cc3ccc(OCc4ccc(Cl)cn4)cc3)c2c1` [Compound 254], the IC50 on human 5-LOX was less than 1 µM. This compound yielded a concentration giving a half-maximal response (EC50) in test [1] of less than 10 µM.

In the case of `Nc1ccc2nc(N)n(Cc3ccc(Oc4ccc(Cl)cn4)c(Cl)c3)c2c1` [Compound 255], at human 5-LOX, the IC50 is less than 1 µM. This compound came in with an EC50 in test [1] of less than 10 µM.

As to `OCCn1c(NCc2ccc(Oc3ccc(Cl)cn3)cc2)nc2ccc(NC3COC3)cc21` [Compound 257], the IC50 on human 5-LOX was less than 1 µM. The EC50 in test [1] is less than 10 µM.

As for `CC(C)n1c(NCc2ccc(Oc3ccc(Cl)cn3)cc2)nc2ccc(N)cc21` [Compound 258], on human 5-LOX, the 50% inhibitory concentration (IC50) was less than 1 µM. The EC50 in test [1] is less than 10 µM.

With `Nc1ccc2nc(NCc3ccc(Oc4ccc(Cl)cn4)cc3)n(CCO)c2c1` [Compound 259], on human 5-LOX, the concentration for half-maximal inhibition (IC50) was less than 1 µM. The EC50 in test [1] was less than 10 µM.

Take `CC(Nc1nc2ccc(N)cc2n1C)c1ccc(Oc2ccc(Cl)cn2)cc1` (stereo not drawn) [Compound 260]: the IC50 on human 5-LOX was less than 1 µM. The EC50 in test [1] is less than 10 µM.

For the compound `Nc1ccc2nc(NCc3ccc(Oc4ccc(Cl)cn4)cc3)n(C3COC3)c2c1` [Compound 261], the IC50 on human 5-LOX is less than 1 µM. In test [1], this compound displayed an EC50 of less than 10 µM.

`N#CCCNc1nc2ccc(NC3COC3)cc2n1Cc1ccc(Oc2ccc(Cl)cc2)cc1` [Compound 262]: at human 5-LOX, the IC50 was greater than 10 µM. In addition, the EC50 in test [1] is less than 10 µM.

Turning to `COCCn1c(NCc2ccc(Oc3ccc(Cl)cn3)cc2)nc2ccc(N)cc21` [Compound 263], the IC50 at human 5-LOX is less than 1 µM. Also, the EC50 in test [1] is 10 to 20 µM.

`Nc1ccc2nc(NCCC(F)(F)F)n(Cc3ccc(Oc4ccc(Cl)cc4)cc3)c2c1` [Compound 264]: the IC50 on human 5-LOX was less than 1 µM. The EC50 in test [1] is less than 10 µM.

`CCn1c(NCc2ccc(Oc3ccc(Cl)cn3)cc2)nc2ccc(N)cc21` [Compound 265]: the IC50 at human 5-LOX is less than 1 µM. In addition, the EC50 in test [1] was less than 10 µM.
